The conditions of data set [1]: 298.15 K, 101.33 kPa, Liquid; for speed of sound: Sing-around technique in a fixed-path interferometer.
A short description of data set [2]: refractive index (Na D-line) (dimensionless). The following applies: 298.15 K, 101.33 kPa, Liquid.

As usually defined, the mass density is the mass of a sample divided by its volume. The term speed of sound denotes the propagation velocity of pressure waves in the medium. The refractive index is the speed of light in vacuum divided by its phase velocity in the sample.

± gives the expanded uncertainty stated by the source.

On to `CCCCCCCC[n+]1ccn(C)c1.[Cl-]` [1-methyl-3-octylimidazolium chloride], for which, in data set [1], the mass density stood at 1007 ± 1.6 kg/m3 and the speed of sound is recorded as 1382 ± 4 m/s. Moreover, in data set [2] (Standard Abbe refractometry), the refractive index is listed as 1.5058 ± 0.00069.

On to `CCO` [ethanol], for which, in data set [1], the speed of sound was found to be 1143 ± 2 m/s. For the same compound, the mass density in data set [1] (Vibrating tube method) was determined as 785.22 kg/m3. Moreover, the refractive index in data set [2] turned out to be 1.3592.

Turning to `CCOC(C)(C)CC` [1,1-dimethylpropyl ethyl ether], the speed of sound in data set [1] was 1096 ± 2 m/s. The mass density in data set [1] (Vibrating tube method) is 760.5 kg/m3. For the same compound, the refractive index in data set [2] amounted to 1.38857.

Source of the values: the NIST ThermoML archive (doi:10.1021/je0302147).
